{"source": "patent US9540691B2", "about": "“Assays and methods for selecting a treatment regimen for a subject with depression” (THE GENERAL HOSPITAL CORPORATION, priority 2011, dated 2017)", "tested_on": "MDD patients carrying the indicated conditions", "details": "with SSRI", "protocol": "Folate levels are classified as either low (<=2.5 ng/ml) or normal; and homocysteine levels as either normal or elevated (>=[…]). The presence or absence of at least one […] allele for the MTHFR gene are entered as a dichotomous variable (present or absent). […] Using folate as an example predicator, the presence or absence of a low serum-folate level along with treatment assignment can be entered in a 2×2, factorial ANOVA, using depression improvement scores (baseline minus endpoint HAM-D-17 scores) as the dependant variable. […] Similar analyses (i.e. separate 2×2 ANOVA's) can be performed substituting the presence of low folate levels for the presence of other predictors as described herein. Similarly, the effect of other predictors can be indicated by the interaction term representing the potential modulating influence of those variables.\nParticularly, specific genetic and biomarkers that were assessed include the following: • (a) BMI calculation of at least about 30 kg/m^2; • (b) an expression ratio of SAM/SAH smaller than 2.8 (e.g., 2.71) as measured in a plasma sample; • (c) a level of 4-HNE no less than 3.28 μg/mL (as measured in a plasma sample); • (d) presence of rare variants CT or TT at position 677 of SEQ ID NO: 1 corresponding to a portion of a genomic nucleic acid sequence of methylenetetrahydrofolate reductase (MTHFR) (abbreviated as “MTHFR 677” below); • (e) presence of rare variants AG or GG at position 2756 of SEQ ID NO: 2 corresponding to a portion of genomic nucleic acid sequence of methionine synthase (MTR) (abbreviated as “MTR 2756” below); and • (f) presence of rare variants AG or GG at position 66 of SEQ ID NO: 3 corresponding to a portion of genomic nucleic acid sequence of methionine synthase reductase (MTRR) (abbreviated as “MTRR 66” below).\nThe efficacy effect is determined by measuring the mean change in the HAMD-17 score and HAMD-28 score by the end of Phase I and Phase II, as compared to the baseline.", "key": {"[1]": {"details": "Phase I, interaction of BMI with the treatment"}, "[2]": {"details": "Phase I, interaction of HNE-his with the treatment"}, "[3]": {"details": "Phase I, interaction of SAM/SAH with the treatment"}, "[4]": {"details": "Phase II, 25 =< BMI < 30 kg/m^2 (18, 10)"}}, "note": "Read-outs that look alike come from different tables or passages of the source.", "data": [{"smiles": "CN1c2c(nc(N)[nH]c2=O)NC[C@@H]1CNc1ccc(C(=O)N[C@@H](CCC(=O)O)C(=O)O)cc1", "note": "[6(S)-5-MTHF, 6(S)-5-methyltetrahydrofolate]", "values": [{"measurement": "Effect, change in HAMD-17 score", "setting": "Phase I, MTRR 66 AA and HNE-His < median (8,5)", "value": "−1.167"}, {"measurement": "Effect, change in HAMD-28 score", "setting": "Phase I, MTRR 66 AA and HNE-His < median = 3.28 (plasma sample)", "value": "−4.167"}, {"measurement": "Effect, change in HAMD-17 score", "setting": "Phase I, MTRR 66 AA and SAM/SAH >= median (9,6)", "value": "−0.125"}, {"measurement": "Effect, change in HAMD-28 score", "setting": "Phase I, MTRR 66 AA and SAM/SAH >= median", "value": 0.500}, {"measurement": "Effect, change in HAMD-17 score", "setting": "Phase I, MTRR 66 AG or GG and HNE-His >= median (24,11)", "value": "−5.958"}, {"measurement": "Effect, change in HAMD-28 score", "setting": "Phase I, MTRR 66 AG or GG and HNE-His >= median", "value": "−6.975"}, {"measurement": "Effect, change in HAMD-17 score", "setting": "Phase I, MTRR 66 AG or GG and SAM/SAH < median (24,10)", "value": "−5.062"}, {"measurement": "Effect, change in HAMD-28 score", "setting": "Phase I, MTRR 66 AG or GG and SAM/SAH < median = 2.71 (plasma sample)", "value": "−6.498"}, {"measurement": "Effect, change in HAMD-17 score", "setting": "Phase I, SAM/SAH < median and HNE-His >= median (19,7)", "value": "−3.670"}, {"measurement": "Effect, change in HAMD-28 score", "setting": "Phase I, SAM/SAH < median and HNE-His >= median", "value": "−4.227"}, {"measurement": "Effect, change in HAMD-17 score", "setting": "Phase I, SAM/SAH >= median and HNE-His < median (18,8)", "value": "−0.250"}, {"measurement": "Effect, change in HAMD-28 score", "setting": "Phase I, SAM/SAH >= median and HNE-His < median", "value": "−0.750"}, {"measurement": "Effect, change in HAMD-17 score: BMI*treat", "setting": "[1]", "value": "−0.567"}, {"measurement": "Effect, change in HAMD-28 score: BMI*treat", "setting": "[1]", "value": "−0.668"}, {"measurement": "Effect, change in HAMD-17 score: HNE-his*treat", "setting": "[2]", "value": "−0.465"}, {"measurement": "Effect, change in HAMD-28 score: HNE-his*treat", "setting": "[2]", "value": "−0.133"}, {"measurement": "Effect, change in HAMD-17 score: SAM/SAH*treat", "setting": "[3]", "value": 0.495}, {"measurement": "Effect, change in HAMD-28 score: SAM/SAH*treat (last line)", "setting": "[3]", "value": 0.972}, {"measurement": "Effect, change in HAMD-17 score: baseHAMD-17*treat", "setting": "Phase I, interaction of base HAMD-17 with the treatment", "value": 0.165}, {"measurement": "Effect, change in HAMD-28 score: SAM/SAH*treat (first line under HAMD28)", "setting": "Phase I, interaction with the treatment", "value": 0.495}, {"measurement": "Effect, change in HAMD-17 score", "setting": "[4]", "value": 2.000}, {"measurement": "Effect, change in HAMD-28 score", "setting": "[4]", "value": 0.000}, {"measurement": "Effect, change in HAMD-17 score", "setting": "Phase II, BMI < 25 (14, 7)", "value": "−1.400"}, {"measurement": "Effect, change in HAMD-28 score", "setting": "Phase II, BMI < 25 (14, 7)", "value": "−2.300"}, {"measurement": "Effect, change in HAMD-17 score", "setting": "Phase II, BMI < 30 kg/m^2 and HNE-His < median (19, 9)", "value": 3.667}, {"measurement": "Effect, change in HAMD-28 score", "setting": "Phase II, BMI < 30 kg/m^2 and HNE-His < median", "value": 1.833}, {"measurement": "Effect, change in HAMD-17 score", "setting": "Phase II, BMI < 30 kg/m^2 and SAM/SAH >= median (16,8)", "value": 1.500}, {"measurement": "Effect, change in HAMD-28 score", "setting": "Phase II, BMI < 30 kg/m^2 and SAM/SAH >= median", "value": 2.500}, {"measurement": "Effect, change in HAMD-28 score", "setting": "Phase II, BMI >= 30 kg/m^2 (40,21)", "value": "−3.245"}, {"measurement": "Effect, change in HAMD-17 score", "setting": "Phase II, BMI >= 30 kg/m^2 and HNE-His >= median (23, 11)", "value": "−4.233"}, {"measurement": "Effect, change in HAMD-28 score", "setting": "Phase II, BMI >= 30 kg/m^2 and HNE-His >= median", "value": "−4.933"}, {"measurement": "Effect, change in HAMD-17 score", "setting": "Phase II, BMI >= 30 kg/m^2 and SAM/SAH < median (21,9)", "value": "−9.200"}, {"measurement": "Effect, change in HAMD-28 score", "setting": "Phase II, BMI >= 30 kg/m^2 and SAM/SAH < median = 2.71 (plasma sample)", "value": "−10.350"}, {"measurement": "Effect, change in HAMD-17 score", "setting": "Phase II, MTHFR 677 CC and BMI < 30 kg/m^2 (17,8)", "value": "−2.267"}, {"measurement": "Effect, change in HAMD-28 score", "setting": "Phase II, MTHFR 677 CC and BMI < 30 kg/m^2", "value": "−3.000"}, {"measurement": "Effect, change in HAMD-17 score", "setting": "Phase II, MTHFR 677 CC and HNE-His < median (20,11)", "value": "−0.857"}, {"measurement": "Effect, change in HAMD-28 score", "setting": "Phase II, MTHFR 677 CC and HNE-His < median = 3.28 (plasma sample)", "value": "−0.536"}, {"measurement": "Effect, change in HAMD-17 score", "setting": "Phase II, MTHFR 677 CC and MTR 2756 AA (29,13)", "value": "−0.571"}, {"measurement": "Effect, change in HAMD-28 score", "setting": "Phase II, MTHFR 677 CC and MTR 2756 AA", "value": 0.048}, {"measurement": "Effect, change in HAMD-17 score", "setting": "Phase II, MTHFR 677 CT or TT and BMI >= 30 kg/m^2 (13,6)", "value": "−7.333"}, {"measurement": "Effect, change in HAMD-28 score", "setting": "Phase II, MTHFR 677 CT or TT and BMI >= 30 kg/m^2", "value": "−8.667"}, {"measurement": "Effect, change in HAMD-17 score", "setting": "Phase II, MTHFR 677 CT or TT and HNE-His >= median (11,6)", "value": "−7.500"}, {"measurement": "Effect, change in HAMD-28 score", "setting": "Phase II, MTHFR 677 CT or TT and HNE-His >= median", "value": "−7.500"}, {"measurement": "Effect, change in HAMD-17 score", "setting": "Phase II, MTHFR 677 CT or TT and MTR 2756 AG or GG (8,4)", "value": "−10.33"}, {"measurement": "Effect, change in HAMD-28 score", "setting": "Phase II, MTHFR 677 CT or TT and MTR 2756 AG or GG", "value": "−13.00"}, {"measurement": "Effect, change in HAMD-17 score", "setting": "Phase II, MTR 2756 AA (45,21)", "value": "−0.427"}, {"measurement": "Effect, change in HAMD-17 score", "setting": "Phase II, MTR 2756 AA and BMI < 30 kg/m^2 (17,7)", "value": 1.167}, {"measurement": "Effect, change in HAMD-28 score", "setting": "Phase II, MTR 2756 AA and BMI < 30 kg/m^2", "value": 0.917}, {"measurement": "Effect, change in HAMD-17 score", "setting": "Phase II, MTR 2756 AA and HNE-His < median (26,13)", "value": 0.300}, {"measurement": "Effect, change in HAMD-28 score", "setting": "Phase II, MTR 2756 AA and HNE-His < median", "value": "−0.125"}, {"measurement": "Effect, change in HAMD-17 score", "setting": "Phase II, MTR 2756 AA and MTRR 66 AA (11,5)", "value": "−8.000"}, {"measurement": "Effect, change in HAMD-17 score", "setting": "Phase II, MTR 2756 AA and MTRR 66 AA and BMI < 30 kg/m^2 (7,4)", "value": "−4.333"}, {"measurement": "Effect, change in HAMD-28 score", "setting": "Phase II, MTR 2756 AA and MTRR 66 AA and BMI < 30 kg/m^2", "value": "−4.667"}, {"measurement": "Effect, change in HAMD-17 score", "setting": "Phase II, MTR 2756 AA and MTRR 66 AA and HNE-His < median (6,4)", "value": "−8.667"}, {"measurement": "Effect, change in HAMD-28 score", "setting": "Phase II, MTR 2756 AA and MTRR 66 AA and HNE-His < median = 3.28 (plasma sample)", "value": "−9.000"}, {"measurement": "Effect, change in HAMD-17 score", "setting": "Phase II, MTR 2756 AA and MTRR 66 AA and SAM/SAH >= median (6,3)", "value": "−7.000"}, {"measurement": "Effect, change in HAMD-28 score", "setting": "Phase II, MTR 2756 AA and MTRR 66 AA and SAM/SAH >= median", "value": "−7.500"}]}]}
